In patent US11414436B2, “Non-coordinating anion type activators containing cation having large alkyl groups” (ExxonMobil Chemical Patents Inc., priority 2018, dated 2022):
Several values for one entry are separate records, joined by “and”; a condition that tells them apart may be missing. Identical values can stand only once.

Columns and labels:
[1] = Solubility studies of the activators (saturated solution in isohexane or methylcyclohexane); assay type: physicochemical; details: methylcyclohexane
[2] = Ethylene-octene copolymerization in parallel pressure reactor, non-metallocene catalyst CAT-4; details: catalyst CAT-4 20 nmol; activator 1.1 equiv; 100° C.; 135 psi; 1-octene 100 uL; TNOAL 0.5 umol
Procedure: (§1) Solutions of the metal complexes and activators were prepared in a drybox using toluene or methylcyclohexane. Concentrations were typically 0.2 mmol/L. Tri-n-octylaluminum (TNOAL, neat, AkzoNobel) was typically used as a scavenger. Concentration of the TNOAL solution in toluene ranged from 0.5 to 2.0 mmol/L.
(§2) Polymerizations were carried out in a parallel pressure reactor, as generally described in U.S. Pat. Nos. 6,306,658; 6,455,316; 6,489,168; WO 00/09255; and Murphy, V. et al. (2003) “A Fully Integrated High-Throughput Screening Methodology for the Discovery of New Polyolefin Catalysts: Discovery of a New Class of High Temperature Single-Site Group (IV) Copolymerization Catalysts,” J. Am. Chem. Soc., v. 125, pp. 4306-4317, each of which is fully incorporated herein by reference. […] Although the specific quantities, temperatures, solvents, reactants, reactant ratios, pressures, and other variables are frequently changed from one polymerization run to the next, the following describes a typical polymerization performed in a parallel pressure reactor.
(§3) Ethylene-Octene Copolymerization (EO).
(§4) A pre-weighed glass vial insert and disposable stirring paddle were fitted to each reaction vessel of the reactor, which contains 48 individual reaction vessels. The reactor was then closed and purged with ethylene. Each vessel was charged with enough solvent (typically isohexane) to bring the total reaction volume, including the subsequent additions, to the desired volume, typically 5 mL. 1-octene, if required, was injected into the reaction vessel and the reactor was heated to the set temperature and pressurized to the predetermined pressure of ethylene, while stirring at 800 rpm. The aluminum compound (such as tri-n-octylaluminum) in toluene was then injected as scavenger followed by addition of the activator solution (typically 1.0-1.2 molar equivalents).
(§5) The catalyst (and activator solutions for Run A) were all prepared in toluene. The catalyst solution (typically 0.020-0.080 μmol of metal complex) was injected into the reaction vessel and the polymerization was allowed to proceed until a pre-determined amount of ethylene (quench value typically 20 psi) had been used up by the reaction. Alternatively, the reaction may be allowed to proceed for a set amount of time (maximum reaction time typically 30 minutes). Ethylene was added continuously (through the use of computer controlled solenoid valves) to the autoclaves during polymerization to maintain reactor gauge pressure (P setpt, +/−2 psig) and the reactor temperature (T) was monitored and typically maintained within +/−1° C. The reaction was quenched by pressurizing the vessel with compressed air. After the reactor was vented and cooled, the glass vial insert containing the polymer product and solvent was removed from the pressure cell and the inert atmosphere glove box, and the volatile components were removed using a Genevac HT-12 centrifuge and Genevac VC3000D vacuum evaporator operating at elevated temperature and reduced pressure. The vial was then weighed to determine the yield of the polymer product. The resultant polymer was analyzed by Rapid GPC (see below) to determine the molecular weight, by FT-IR (see below) to determine percent octene incorporation, and by DSC (see below) to determine melting point (Tm).
(§6) Equivalence is determined based on the mole equivalents relative to the moles of the transition metal in the catalyst complex.
(§7) Activators of the present disclosure can also be used for activating non-metallocene catalysts for polymerization of olefins. Table 4 illustrates copolymerization of ethylene and octene using activators of the present disclosure and non-metallocene catalysts (CAT-1, CAT-2, CAT-3, and CAT-4).

[3] = Ethylene-octene copolymerization in parallel pressure reactor, non-metallocene catalyst CAT-1; details: catalyst CAT-1 20 nmol; activator 1.1 equiv; 100° C.; 135 psi; 1-octene 100 uL; TNOAL 0.5 umol
Procedure: as §1, §2, §3, §4, §5, §6, §7

[4] = Ethylene-octene copolymerization in parallel pressure reactor, non-metallocene catalyst CAT-2; details: catalyst CAT-2 20 nmol; activator 1.1 equiv; 100° C.; 135 psi; 1-octene 100 uL; TNOAL 0.5 umol
Procedure: as §1, §2, §3, §4, §5, §6, §7

[5] = Propylene homopolymerization in parallel pressure reactor, MCN-1 with ammonium borate activators; details: for activity: isohexane; for average catalyst activity, comparison of the four activators (FIG. 6): MCN-1, polypropylene at 100° C., Table 7 runs
[6] = Ethylene-octene copolymerization in parallel pressure reactor, non-metallocene catalyst CAT-3; details: catalyst CAT-3 20 nmol; activator 1.1 equiv; 100° C.; 135 psi; 1-octene 100 uL; TNOAL 0.5 umol
Procedure: as §1, §2, §3, §4, §5, §6, §7

[7] = Activator Equiv 1.0, TNOAL 0.25 umol, MCN-1 30 nmol, 85° C., propylene 135 psi
[8] = Activator Equiv 1.0, TNOAL 0.50 umol, MCN-1 30 nmol, 85° C., propylene 135 psi
[9] = Activator Equiv 1.0, TNOAL 0.75 umol, MCN-1 30 nmol, 85° C., propylene 135 psi
[10] = Activator Equiv 1.2, TNOAL 0.25 umol, MCN-1 30 nmol, 85° C., propylene 135 psi
[11] = Activator Equiv 1.2, TNOAL 0.50 umol, MCN-1 30 nmol, 85° C., propylene 135 psi
[12] = Activator Equiv 1.2, TNOAL 0.75 umol, MCN-1 30 nmol, 85° C., propylene 135 psi
[13] = Activator Equiv 1.4, TNOAL 0.25 umol, MCN-1 30 nmol, 85° C., propylene 135 psi
[14] = Activator Equiv 1.4, TNOAL 0.50 umol, MCN-1 30 nmol, 85° C., propylene 135 psi
[15] = Activator Equiv 1.4, TNOAL 0.75 umol, MCN-1 30 nmol, 85° C., propylene 135 psi
[16] = Activator Equiv 1.6, TNOAL 0.25 umol, MCN-1 30 nmol, 85° C., propylene 135 psi
[17] = Activator Equiv 1.6, TNOAL 0.50 umol, MCN-1 30 nmol, 85° C., propylene 135 psi
[18] = Activator Equiv 1.6, TNOAL 0.75 umol, MCN-1 30 nmol, 85° C., propylene 135 psi
[19] = propylene 150 psi, 100° C., MCN-1 = 30 nmol, activator = 33 nmol, TNOAL 500 nmol

Compound	Solubility limit in MeCy (wt % at 25° C.) [1] [wt %]	activity [2]	activity [3]	activity [4]	activity [5, 7]	activity [5, 8]	activity [5, 9]	activity [5, 10]	activity [5, 11]	activity [5, 12]	activity [5, 13]	activity [5, 14]	activity [5, 15]	activity [5, 16]	activity [5, 17]	activity [5, 18]	average catalyst activity, comparison of the four activators (FIG. 6) [5]	activity [5, 19]	activity [6]	activity ([5]; propylene, 85 °C, 135 psi, MCN-1 = 20 nmol, activator = 20 nmol, TNOAL 500 nmol) [kg/mmol/h]
CCCCCCCCCCCCCCCCCC[NH+](CCCCCCCCCCCCCCCCCC)c1ccc(C)cc1.Fc1c(F)c(F)c2c(F)c([B-](c3c(F)c(F)c4c(F)c(F)c(F)c(F)c4c3F)(c3c(F)c(F)c4c(F)c(F)c(F)c(F)c4c3F)c3c(F)c(F)c4c(F)c(F)c(F)c(F)c4c3F)c(F)c(F)c2c1F [DOdTH-BF28, 4-methyl-N,N-dioctadecylbenzenaminium-BF28]	35	48 kg/mmol/h and 46 kg/mmol/h	3873 kg/mmol/h and 3497 kg/mmol/h	1034 kg/mmol/h and 533 kg/mmol/h	271 kg/mmol/h and 259 kg/mmol/h and 246 kg/mmol/h	212 kg/mmol/h and 194 kg/mmol/h and 175 kg/mmol/h	138 kg/mmol/h and 132 kg/mmol/h and 120 kg/mmol/h	354 kg/mmol/h and 295 kg/mmol/h and 281 kg/mmol/h	242 kg/mmol/h and 211 kg/mmol/h and 191 kg/mmol/h	168 kg/mmol/h and 142 kg/mmol/h and 134 kg/mmol/h	315 kg/mmol/h and 284 kg/mmol/h and 261 kg/mmol/h	225 kg/mmol/h and 186 kg/mmol/h and 180 kg/mmol/h	173 kg/mmol/h and 153 kg/mmol/h and 144 kg/mmol/h	283 kg/mmol/h and 267 kg/mmol/h	265 kg/mmol/h and 196 kg/mmol/h and 188 kg/mmol/h	174 kg/mmol/h and 150 kg/mmol/h and 134 kg/mmol/h	somewhat lower activity	138 kg/mmol/h and 153 kg/mmol/h and 101 kg/mmol/h	838 kg/mmol/h and 829 kg/mmol/h	–
N,N-dimethylanilinium tetrakis(heptafluoronaphthalen-2-yl)borate [DMAH-BF28, reference compound]	–	59 kg/mmol/h and 54 kg/mmol/h	3494 kg/mmol/h and 3144 kg/mmol/h	1161 kg/mmol/h and 724 kg/mmol/h	604 kg/mmol/h and 502 kg/mmol/h	394 kg/mmol/h and 352 kg/mmol/h	233 kg/mmol/h and 212 kg/mmol/h	703 kg/mmol/h and 673 kg/mmol/h	506 kg/mmol/h and 459 kg/mmol/h	332 kg/mmol/h and 256 kg/mmol/h	709 kg/mmol/h and 677 kg/mmol/h	554 kg/mmol/h and 431 kg/mmol/h	370 kg/mmol/h and 334 kg/mmol/h	803 kg/mmol/h	511 kg/mmol/h and 467 kg/mmol/h	404 kg/mmol/h and 356 kg/mmol/h	highest average activities	175 kg/mmol/h and 231 kg/mmol/h and 160 kg/mmol/h and 121 kg/mmol/h and 211 kg/mmol/h and 188 kg/mmol/h and 190 kg/mmol/h	808 kg/mmol/h and 691 kg/mmol/h	138
